Assay results from ChEMBL document CHEMBL5465560, “Selectivity Literature for EUbOPEN Chemogenomic Library” (2024).

Experiments:
[1] = molecular target: Cyclin-dependent kinase 2 (Homo sapiens, UniProt P24941); assay: Selectivity interaction (KinomeScan (DiscoverX)) EUB0000229b CDK2; conditions: at 10 µM
[2] = molecular target: Ribosomal protein S6 kinase alpha-3 (Homo sapiens, UniProt P51812); assay: Selectivity interaction (KinomeScan (DiscoverX)) EUB0001079a RPS6KA3; conditions: at 1 µM
[3] = molecular target: Serine/threonine-protein kinase Nek7 (Homo sapiens) (UniProt Q8TDX7); assay: Selectivity interaction (Kinase panel (KiNativ target engagement assay in Jurkat cells)) EUB0001635a NEK7; assay type: cell-based; conditions: Selectivity number of off-targets 0.0, Selectivity number of targets 233.0, Source Knowledge https://www.sciencedirect.com/science/article/pii/S2451945619300674?via%3Dihub, at 1 µM
[4] = molecular target: Serine/threonine-protein kinase SMG1 (Homo sapiens) (UniProt Q96Q15); assay: Selectivity interaction (Kinase panel (KiNativ target engagement assay in Jurkat cells)) EUB0001635a SMG1; assay type: cell-based; conditions: Selectivity number of off-targets 0.0, Selectivity number of targets 233.0, Source Knowledge https://www.sciencedirect.com/science/article/pii/S2451945619300674?via%3Dihub, at 1 µM
[5] = molecular target: Protein kinase C theta type (Homo sapiens, UniProt Q04759); assay: Selectivity interaction (Kinase panel (33PanQinase(R) Activity Assay)) EUB0000877a PRKCQ
Protein kinase C theta type, sequence (Q04759 whole entry): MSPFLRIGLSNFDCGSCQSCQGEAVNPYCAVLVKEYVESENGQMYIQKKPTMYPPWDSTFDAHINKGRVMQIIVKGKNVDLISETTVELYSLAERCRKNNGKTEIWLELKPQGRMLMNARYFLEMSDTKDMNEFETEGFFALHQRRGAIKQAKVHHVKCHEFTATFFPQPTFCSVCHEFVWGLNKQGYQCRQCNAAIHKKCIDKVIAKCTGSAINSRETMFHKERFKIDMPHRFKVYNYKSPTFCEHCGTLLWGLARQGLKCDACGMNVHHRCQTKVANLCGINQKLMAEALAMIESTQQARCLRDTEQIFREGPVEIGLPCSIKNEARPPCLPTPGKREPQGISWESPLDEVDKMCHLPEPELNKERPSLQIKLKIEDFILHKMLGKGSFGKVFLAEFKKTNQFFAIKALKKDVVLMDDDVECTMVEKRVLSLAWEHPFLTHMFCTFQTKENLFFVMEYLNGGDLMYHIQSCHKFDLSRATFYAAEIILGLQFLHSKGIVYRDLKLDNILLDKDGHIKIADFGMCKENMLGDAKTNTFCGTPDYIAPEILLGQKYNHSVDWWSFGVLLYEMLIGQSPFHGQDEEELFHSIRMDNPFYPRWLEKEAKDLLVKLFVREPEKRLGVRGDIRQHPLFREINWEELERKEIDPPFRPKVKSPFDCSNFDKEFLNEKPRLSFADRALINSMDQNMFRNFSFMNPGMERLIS

[6] = molecular target: Serine/threonine-protein kinase 16 (Homo sapiens, UniProt O75716); assay: Selectivity interaction (KinomeScan (DiscoverX)) EUB0000092b STK16; conditions: at 10 µM
[7] = molecular target: Casein kinase I isoform delta (Homo sapiens, UniProt P48730); assay: Selectivity interaction (KinomeScan (DiscoverX)) EUB0000045b CSNK1D
Casein kinase I isoform delta, sequence (P48730 whole entry, looked up, canonical isoform): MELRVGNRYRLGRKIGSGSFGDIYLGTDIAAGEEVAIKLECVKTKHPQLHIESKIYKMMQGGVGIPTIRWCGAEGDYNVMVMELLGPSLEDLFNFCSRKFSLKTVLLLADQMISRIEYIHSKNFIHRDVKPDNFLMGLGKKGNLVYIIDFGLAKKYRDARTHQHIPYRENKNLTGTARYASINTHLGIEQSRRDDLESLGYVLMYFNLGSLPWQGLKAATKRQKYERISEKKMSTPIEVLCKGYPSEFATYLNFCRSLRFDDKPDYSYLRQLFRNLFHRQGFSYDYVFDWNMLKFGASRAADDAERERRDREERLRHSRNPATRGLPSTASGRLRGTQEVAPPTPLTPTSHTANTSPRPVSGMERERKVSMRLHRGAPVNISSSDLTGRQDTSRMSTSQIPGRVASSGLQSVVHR

[8] = molecular target: Mitogen-activated protein kinase 1 (Homo sapiens, UniProt P28482); assay: Selectivity interaction (KinomeScan (DiscoverX)) EUB0000618a MAPK1; conditions: at 10 µM
Mitogen-activated protein kinase 1, sequence (P28482 whole entry): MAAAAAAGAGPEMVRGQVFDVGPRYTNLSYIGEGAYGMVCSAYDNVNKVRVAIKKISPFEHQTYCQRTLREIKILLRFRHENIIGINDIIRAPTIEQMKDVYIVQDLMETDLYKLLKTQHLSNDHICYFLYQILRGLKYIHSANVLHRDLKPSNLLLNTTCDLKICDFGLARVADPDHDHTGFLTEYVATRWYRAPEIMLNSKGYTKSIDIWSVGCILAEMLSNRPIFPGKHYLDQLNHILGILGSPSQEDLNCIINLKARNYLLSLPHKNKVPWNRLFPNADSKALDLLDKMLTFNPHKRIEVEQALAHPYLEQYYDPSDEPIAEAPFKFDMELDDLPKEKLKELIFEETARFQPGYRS

[9] = molecular target: Mitogen-activated protein kinase 11 (Homo sapiens) (UniProt Q15759); assay: Selectivity interaction (KinomeScan (DiscoverX)) EUB0000655a MAPK11; conditions: at 10 µM
Mitogen-activated protein kinase 11 (Homo sapiens), sequence (Q15759 whole entry): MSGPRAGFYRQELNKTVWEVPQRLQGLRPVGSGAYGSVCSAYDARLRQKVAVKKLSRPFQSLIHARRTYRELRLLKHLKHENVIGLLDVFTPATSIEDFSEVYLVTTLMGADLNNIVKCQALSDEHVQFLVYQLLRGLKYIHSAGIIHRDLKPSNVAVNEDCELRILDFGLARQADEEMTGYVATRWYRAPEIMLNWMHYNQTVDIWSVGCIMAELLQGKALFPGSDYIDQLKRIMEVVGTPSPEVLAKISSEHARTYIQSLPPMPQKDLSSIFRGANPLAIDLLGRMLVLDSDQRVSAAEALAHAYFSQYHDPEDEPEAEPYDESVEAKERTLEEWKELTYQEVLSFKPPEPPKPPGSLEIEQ

[10] = molecular target: T1, Interleukin-1 receptor-associated kinase 4 (Homo sapiens) (UniProt Q9NWZ3); assay: Selectivity interaction (KinomeScan (DiscoverX)) EUB0000695a IRAK4; conditions: at 100 nM
T1 sequence (whole entry): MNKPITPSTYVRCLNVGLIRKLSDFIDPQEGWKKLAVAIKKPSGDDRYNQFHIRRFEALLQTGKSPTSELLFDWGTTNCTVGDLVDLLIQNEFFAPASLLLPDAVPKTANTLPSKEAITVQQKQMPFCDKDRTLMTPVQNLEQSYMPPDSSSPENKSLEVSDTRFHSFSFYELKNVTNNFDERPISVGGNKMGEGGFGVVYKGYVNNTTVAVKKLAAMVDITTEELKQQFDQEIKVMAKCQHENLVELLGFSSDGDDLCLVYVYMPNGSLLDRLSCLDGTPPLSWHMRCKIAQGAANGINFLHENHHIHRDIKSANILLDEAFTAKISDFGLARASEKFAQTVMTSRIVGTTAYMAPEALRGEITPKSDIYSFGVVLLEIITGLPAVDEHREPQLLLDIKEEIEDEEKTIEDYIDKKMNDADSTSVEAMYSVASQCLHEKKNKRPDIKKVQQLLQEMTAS

[11] = molecular target: G protein-coupled receptor kinase 6 (Homo sapiens) (UniProt P43250); assay: Selectivity interaction (SelectScreen profiling (Invitrogen)) EUB0000607a GRK6; conditions: at 2 µM
G protein-coupled receptor kinase 6 (Homo sapiens), sequence (P43250 whole entry, looked up): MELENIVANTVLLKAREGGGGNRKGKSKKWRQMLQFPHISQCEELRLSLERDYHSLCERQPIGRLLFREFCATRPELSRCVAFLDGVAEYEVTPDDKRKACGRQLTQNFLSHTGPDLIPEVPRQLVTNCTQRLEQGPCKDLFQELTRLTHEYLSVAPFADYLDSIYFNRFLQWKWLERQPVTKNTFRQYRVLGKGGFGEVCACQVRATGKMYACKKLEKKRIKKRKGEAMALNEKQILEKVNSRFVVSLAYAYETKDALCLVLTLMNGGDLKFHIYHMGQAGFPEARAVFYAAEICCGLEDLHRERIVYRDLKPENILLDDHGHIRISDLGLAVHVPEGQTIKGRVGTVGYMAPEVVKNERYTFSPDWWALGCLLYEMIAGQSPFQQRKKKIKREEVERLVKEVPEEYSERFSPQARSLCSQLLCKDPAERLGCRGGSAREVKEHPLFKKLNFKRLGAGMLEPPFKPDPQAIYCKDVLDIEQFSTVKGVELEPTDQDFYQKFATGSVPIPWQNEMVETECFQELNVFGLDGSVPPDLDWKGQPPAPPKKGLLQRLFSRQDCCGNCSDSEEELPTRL

[12] = molecular target: Serine/threonine-protein kinase 35 (Homo sapiens) (UniProt Q8TDR2); assay: Selectivity interaction (KinomeScan (DiscoverX)) EUB0000607a STK35; conditions: at 10 µM
Serine/threonine-protein kinase 35 (Homo sapiens), sequence (Q8TDR2 whole entry): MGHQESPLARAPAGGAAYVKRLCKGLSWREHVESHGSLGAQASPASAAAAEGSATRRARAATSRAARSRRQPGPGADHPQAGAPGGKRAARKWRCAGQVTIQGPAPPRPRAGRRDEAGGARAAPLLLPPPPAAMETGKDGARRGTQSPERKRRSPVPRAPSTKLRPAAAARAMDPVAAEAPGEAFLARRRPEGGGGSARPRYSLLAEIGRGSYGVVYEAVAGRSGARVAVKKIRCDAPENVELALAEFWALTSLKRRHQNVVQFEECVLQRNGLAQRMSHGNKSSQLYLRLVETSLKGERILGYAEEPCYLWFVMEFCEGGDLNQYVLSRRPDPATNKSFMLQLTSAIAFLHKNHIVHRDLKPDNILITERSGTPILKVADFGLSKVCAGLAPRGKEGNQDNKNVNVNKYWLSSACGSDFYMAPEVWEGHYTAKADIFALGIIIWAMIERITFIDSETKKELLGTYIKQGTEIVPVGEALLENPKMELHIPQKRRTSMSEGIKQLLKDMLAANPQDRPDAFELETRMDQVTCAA

[13] = molecular target: Fibroblast growth factor receptor 2 (Homo sapiens) (UniProt P21802); assay: Selectivity interaction (SelectScreen profiling (Invitrogen)) EUB0000607a FGFR2; conditions: at 2 µM
Fibroblast growth factor receptor 2 (Homo sapiens), sequence (P21802 22-821 limits assumed): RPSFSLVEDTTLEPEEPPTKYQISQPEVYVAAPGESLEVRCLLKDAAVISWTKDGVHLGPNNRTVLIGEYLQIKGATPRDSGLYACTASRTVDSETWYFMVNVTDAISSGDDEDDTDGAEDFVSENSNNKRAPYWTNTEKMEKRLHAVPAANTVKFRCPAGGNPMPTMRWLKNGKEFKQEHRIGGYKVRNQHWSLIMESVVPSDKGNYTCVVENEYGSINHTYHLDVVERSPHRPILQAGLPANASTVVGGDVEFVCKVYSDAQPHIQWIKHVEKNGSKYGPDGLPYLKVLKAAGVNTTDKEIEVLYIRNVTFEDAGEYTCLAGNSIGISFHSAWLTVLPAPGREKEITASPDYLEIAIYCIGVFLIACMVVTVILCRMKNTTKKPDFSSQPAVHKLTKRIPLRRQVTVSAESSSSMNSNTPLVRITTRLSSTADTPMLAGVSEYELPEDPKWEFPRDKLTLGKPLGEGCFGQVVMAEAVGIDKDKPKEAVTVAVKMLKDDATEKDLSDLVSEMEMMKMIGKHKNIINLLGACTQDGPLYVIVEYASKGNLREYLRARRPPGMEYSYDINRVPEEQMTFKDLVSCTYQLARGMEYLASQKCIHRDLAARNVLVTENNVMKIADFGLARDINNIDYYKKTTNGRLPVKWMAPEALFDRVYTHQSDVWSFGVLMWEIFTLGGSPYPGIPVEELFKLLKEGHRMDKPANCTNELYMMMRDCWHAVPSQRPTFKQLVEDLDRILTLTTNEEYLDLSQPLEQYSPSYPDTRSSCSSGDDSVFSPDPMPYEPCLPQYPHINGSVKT

[14] = molecular target: T2, cGMP-dependent protein kinase 2 (Homo sapiens) (UniProt Q13237); assay: Selectivity interaction (KinomeScan (DiscoverX)) EUB0000607a PRKG2; conditions: at 10 µM
T2 sequence (whole entry): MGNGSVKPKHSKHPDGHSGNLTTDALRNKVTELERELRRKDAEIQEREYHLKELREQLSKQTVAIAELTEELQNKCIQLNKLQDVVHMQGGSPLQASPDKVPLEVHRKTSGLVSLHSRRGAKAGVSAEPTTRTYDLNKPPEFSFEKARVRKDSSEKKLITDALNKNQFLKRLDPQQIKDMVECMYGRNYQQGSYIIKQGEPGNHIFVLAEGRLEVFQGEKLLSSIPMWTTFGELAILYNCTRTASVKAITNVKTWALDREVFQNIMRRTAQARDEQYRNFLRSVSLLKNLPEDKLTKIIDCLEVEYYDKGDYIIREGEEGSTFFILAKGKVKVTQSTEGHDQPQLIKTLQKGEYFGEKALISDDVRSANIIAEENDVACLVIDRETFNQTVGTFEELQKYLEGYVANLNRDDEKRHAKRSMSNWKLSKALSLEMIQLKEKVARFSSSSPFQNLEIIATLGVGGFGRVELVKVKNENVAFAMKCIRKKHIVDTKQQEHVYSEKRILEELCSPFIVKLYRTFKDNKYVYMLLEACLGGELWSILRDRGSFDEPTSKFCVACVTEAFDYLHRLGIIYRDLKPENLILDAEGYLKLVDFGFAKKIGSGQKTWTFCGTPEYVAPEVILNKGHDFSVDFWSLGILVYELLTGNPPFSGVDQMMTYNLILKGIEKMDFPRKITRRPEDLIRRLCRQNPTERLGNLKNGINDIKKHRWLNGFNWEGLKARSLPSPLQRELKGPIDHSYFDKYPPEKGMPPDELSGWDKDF

[15] = molecular target: Casein kinase II subunit alpha (Homo sapiens, UniProt P68400); assay: Selectivity interaction (ProQinase) EUB0000171b CSNK2A1
Casein kinase II subunit alpha, sequence (P68400 whole entry, looked up): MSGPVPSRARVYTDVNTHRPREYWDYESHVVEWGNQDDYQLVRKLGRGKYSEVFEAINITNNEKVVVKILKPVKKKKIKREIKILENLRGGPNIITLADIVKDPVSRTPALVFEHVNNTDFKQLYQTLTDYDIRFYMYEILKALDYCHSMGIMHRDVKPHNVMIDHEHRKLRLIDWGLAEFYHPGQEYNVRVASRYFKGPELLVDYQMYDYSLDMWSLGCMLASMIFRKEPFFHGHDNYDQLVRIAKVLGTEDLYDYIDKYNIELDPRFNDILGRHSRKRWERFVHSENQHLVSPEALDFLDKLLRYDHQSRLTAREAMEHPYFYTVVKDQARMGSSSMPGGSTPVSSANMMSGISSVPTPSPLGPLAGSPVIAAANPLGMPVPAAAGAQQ

Ribosomal protein S6 kinase alpha-3, sequence (P51812 whole entry): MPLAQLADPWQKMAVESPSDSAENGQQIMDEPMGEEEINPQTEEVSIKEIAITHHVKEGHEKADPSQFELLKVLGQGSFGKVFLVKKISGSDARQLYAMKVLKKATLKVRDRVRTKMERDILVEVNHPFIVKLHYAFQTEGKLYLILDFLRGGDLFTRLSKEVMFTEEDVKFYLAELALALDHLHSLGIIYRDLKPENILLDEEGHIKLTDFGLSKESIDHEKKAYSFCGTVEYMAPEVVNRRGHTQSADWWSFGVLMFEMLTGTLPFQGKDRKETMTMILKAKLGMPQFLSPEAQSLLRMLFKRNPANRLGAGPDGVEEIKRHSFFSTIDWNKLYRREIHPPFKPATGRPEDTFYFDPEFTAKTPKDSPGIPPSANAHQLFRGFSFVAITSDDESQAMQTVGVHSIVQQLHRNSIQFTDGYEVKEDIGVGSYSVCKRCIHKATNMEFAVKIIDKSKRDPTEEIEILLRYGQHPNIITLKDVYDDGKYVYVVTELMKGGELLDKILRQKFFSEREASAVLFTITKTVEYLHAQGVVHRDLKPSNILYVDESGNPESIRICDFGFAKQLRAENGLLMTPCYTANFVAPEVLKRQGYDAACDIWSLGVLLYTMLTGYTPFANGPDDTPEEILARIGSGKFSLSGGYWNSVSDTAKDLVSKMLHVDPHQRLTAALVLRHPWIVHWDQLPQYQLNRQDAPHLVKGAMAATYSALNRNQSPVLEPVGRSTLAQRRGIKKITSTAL

Structure (SMILES): COc1cc(N(C)c2ccnc3ccc(C(F)(F)F)cc23)cc(OC)c1OC
- % binding [1]: 100%

Structure (SMILES): Nc1cnc(N2CCc3cc(S(=O)(=O)Nc4c(F)cc(Cl)cc4F)cc(N4CCCC4=O)c32)nc1 [TP-020n]
- % of control [2]: 100%

Structure (SMILES): C=CC(=O)Nc1ccc(C(=O)Nc2[nH]nc3c2CN(C(=O)N[C@H](CN(C)C)c2ccccc2)C3(C)C)cc1
- % of engagement [3]: -12.5%
- % of engagement [4]: -6.6%

Structure (SMILES): CCC(=O)N1CC[C@H](Nc2ncnc3c2CN(c2cnc(OC)c(C(F)(F)F)c2)CC3)C1 [LENIOLISIB]
- IC50 [5]: > 10 µM

Structure (SMILES): CCC(=O)N1CCN(c2ccc(-n3c(=O)ccc4cnc5ccc(-c6cnc7ccccc7c6)cc5c43)cc2C(F)(F)F)CC1
- % of control [6]: 18%

Structure (SMILES): C=CC(=O)Nc1cc(-n2c(=O)ccc3cnc4ccc(-c5ccc(NS(C)(=O)=O)cc5)cc4c32)ccc1C
- % of control ([7]; at 1 µM): 84%
- % of control ([7]; at 10 µM): 90%

Structure (SMILES): O[C@H]1CC[C@H](Nc2ncc3nc(Nc4c(F)cc(F)cc4F)n([C@H]4CCOC4)c3n2)CC1
- % of control [8]: 15%

Structure (SMILES): CN(C)CCOc1ccc(-c2nc(-c3ccncc3)c(-c3ccc4c(c3)CC/C4=N\O)[nH]2)cc1
- % of control [9]: 91%

Structure (SMILES): Cc1cc(F)c(C(=O)Nc2cccc(-c3nncn3C(C)C)n2)cc1-n1cnc(C2CC2)c1
- % of control [10]: 85%

Structure (SMILES): CNC(=O)Nc1ccc(-c2nc(N3CC4CCC(C3)O4)c3cnn(C4CCC5(CC4)OCCO5)c3n2)cc1
- % of inhibition [11]: -1%
- % of control [12]: 95%
- % of inhibition [13]: 4%
- % of control [14]: 88%

Structure (SMILES): C=CC(=O)Nc1cccc(C(=O)Nc2ccc(Nc3cc(-c4[nH]c(SC)nc4C)ccn3)cc2)c1
- % of control ([15]; at 1 µM): 92%
- % of control ([15]; at 5 µM): 75%
